Data on twelve compounds can be found in patent US6495576B2, “Aminal diones as potassium channel openers” (Abbott Laboratories, priority 2001, dated 2002).

The experiment deals with Landrace pig bladder strips. The experiment in a line: Functional potassium channel opening activity in isolated, field-stimulated bladder strips. Conditions: for Index: ED50 for P1075 divided by ED50 for test agonist in a given tissue, averaged; for EC50: amount causing 50% of the agent's maximal response, field stimulation 0.05 Hz, 0.5 ms, 20 volts, read-out: ED50 (the source's name); for Efficacy (%P1075) / Emax: maximal efficacy on stimulated twitch, relative to P1075; for Emax: Sus scrofa. As for the experimental part: Compound were evaluated for functional potassium channel opening activity using tissue strips obtained from Landrace pig bladders.
Landrace pig bladders were obtained from female Landrace pigs of 9-30 kg. Landrace pig were euthanized with an intraperitoneal injection of pentobarbital solution, Somlethal ®, J. A. Webster Inc. Sterling Mass. The entire bladder was removed and immediately placed into Krebs Ringer bicarbonate solution (composition, mM: NaCl, 120; NaHCO3, 20; dextrose, 11; KCl, 4.7; CaCl2, 2.5; MgSO4, 1.5; KH2PO4, 1.2; K2EDTA, 0.01, equilibrated with 5% CO2/95% O2 pH 7.4 at 37° C.). Propranolol (0.004 mM) was included in all of the assays to block β-adrenoceptors. The trigonal and dome portions were discarded. Strips 3-5 mm wide and 20 mm long were prepared from the remaining tissue cut in a circular fashion. The mucosal layer was removed. One end was fixed to a stationary glass rod and the other to a Grass FT03 transducer at a basal preload of 1.0 gram. Two parallel platinum electrodes were included in the stationary glass rod to provide field stimulation of 0.05 Hz, 0.5 milli-seconds at 20 volts. This low frequency stimulation produced a stable twitch response of 100-500 centigrams. Tissues were allowed to equilibrate for at least 60 minutes and primed with 80 mM KCl. A control concentration response curve (cumulative) was generated for each tissue using the potassium channel opener P1075 as the control agonist. […] After a 60 minute rinsing period, a concentration response curve (cumulative) was generated for the test agonist in the same fashion as that used for control agonist P1075. The maximal efficacy of each compound (expressed as % relative to P1075) is reported. The amount of agent necessary to cause 50% of the agent's maximal response (ED50) was calculated using “ALLFIT” (DeLean et al., Am. J. Physiol., 235, E97 (1980)), hereby incorporated by reference. Agonist potencies were also expressed as an index relative to P1075. The index was calculated by dividing the ED50 for P1075 by the ED50 for the test agonist in a given tissue. Each tissue was used for only one test agonist, and the indices obtained from each tissue were averaged to provide an average index of potency.

In the case of `CC(C)(C)C(NC(=O)c1cc(F)cc(F)c1)Nc1c(Nc2cccnc2)c(=O)c1=O` (single isomer, unassigned; (+)) [Example 49, (+)N-(1-{[3.4-Dioxo-2-(3-pyridinylamino)-1-cyclobuten-1-yl]amino}-2,2-dimethylpropyl)-3,5-difluorobenzamide], the Index is given as 0.071, the EC50 was 1.2 µM and the “Efficacy (%P1075)” value is listed as 100 %P1075.

With `CC(C)(C)C(NC(=O)c1cccc(Cl)c1)Nc1c(Nc2cccnc2)c(=O)c1=O` (single isomer, unassigned; (+)) [Example 56, (+) 3-Chloro-N-(1-{[3.4-dioxo-2-(3-pyridinylamino)-1-cyclobuten-1-yl]amino}-2,2-dimethylpropyl)benzamide], the Index worked out at 0.028, the EC50 amounted to 2.2 µM and the “Efficacy (%P1075)” value came out at 94 %P1075.

As a reminder, the Emax is the maximal effect, on the per cent scale that the assay sets. As for `CC(C)(C)C(NC(=O)c1cc(F)cc(F)c1)Nc1c(Nc2cccnc2)c(=O)c1=O` (single isomer, unassigned; (-)) [Example 50, (−)N-(1-{[3,4-Dioxo-2-(3-pyridinylamino)-1-cyclobuten-1-yl]amino}-2,2-dimethylpropyl)-3,5-difluorobenzamide], the Index turned out to be 0.14, the Emax was 79% and the EC50 amounted to 6.8 µM.

Turning to `CC(C)(C)C(NC(=O)c1cccc(Cl)c1)Nc1c(Nc2cccnc2)c(=O)c1=O` (single isomer, unassigned; (-)) [Example 57, (−) 3-Chloro-N-(1-{[3,4-dioxo-2-(3-pyridinylamino)-1-cyclobuten-1-yl]amino}-2,2-dimethylpropyl)benzamide], the Index was determined as 0.015, the maximal response (Emax) was 81% and the EC50 amounted to 4 µM.

`CC(C)(C)C(NC(=O)c1ccc(I)cc1)Nc1c(Nc2cccnc2)c(=O)c1=O` (centres unmarked) [Example 3, N-(1-{[3,4-Dioxo-2-(3-pyridinylamino)-1-cyclobuten-1-yl]amino}-2,2-dimethylpropyl)-4-iodobenzamide] came in with an Index of 0.062.

Turning to `CC(C)(C)C(NC(=O)c1cccc(Cl)c1)Nc1c(Nc2cccnc2)c(=O)c1=O` (centres unmarked) [Example 5, 3-chloro-N-(1-{[3,4-Dioxo-2-(3-pyridinylamino)-1-cyclobuten-1-yl]amino}-2,2-dimethylpropyl)benzamide], the Index was 0.059.

Take `Cc1cccc(C(=O)NC(Nc2c(Nc3cccnc3)c(=O)c2=O)C(C)(C)C)c1` (centres unmarked) [Example 6, N-(1-{[3,4-Dioxo-2-(3-pyridinylamino)-1-cyclobuten-1-yl]amino}-2,2-dimethylpropyl)-3-methylbenzamide]: the Index amounted to 0.067.

`CC(C)(C)C(NC(=O)c1cccc(F)c1)Nc1c(Nc2cccnc2)c(=O)c1=O` (centres unmarked) [Example 7, N-(1-{[3,4-Dioxo-2-(3-pyridinylamino)-1-cyclobuten-1-yl]amino}-2,2-dimethylpropyl)-3-fluorobenzamide] returned an Index of 0.025.

The compound `CC(C)(C)C(NC(=O)c1cccc(I)c1)Nc1c(Nc2cccnc2)c(=O)c1=O` (centres unmarked) [Example 8, N-(1-{[3,4-Dioxo-2-(3-pyridinylamino)-1-cyclobuten-1-yl]amino}-2,2-dimethylpropyl)-3-iodobenzamide] showed an Index of 0.047.

`CC(C)(C)C(NC(=O)c1cc(Cl)cc(Cl)c1)Nc1c(Nc2cccnc2)c(=O)c1=O` (centres unmarked) [Example 12, 3,5-Dichloro-N-(1-{[3,4-dioxo-2-(3-pyridinylamino)-1-cyclobuten-1-yl]amino}-2,2-dimethylpropyl)benzamide]: the Index was 0.12.

`COc1cc(OC)cc(C(=O)NC(Nc2c(Nc3cccnc3)c(=O)c2=O)C(C)(C)C)c1` (centres unmarked) [Example 13, N-(1-{[3,4-dioxo-2-(3-pyridinylamino)-1-cyclobuten-1-yl]amino}-2,2-dimethylpropyl)-3,5-dimethoxybenzamide] gave an Index of 0.57.

Take `CC(C)(C)C(NC(=O)c1cc(F)cc(F)c1)Nc1c(Nc2cccnc2)c(=O)c1=O` (centres unmarked) [Example 16, N-(1-{[3,4-Dioxo-2-(3-pyridinylamino)-1-cyclobuten-1-yl]amino}-2,2-dimethylpropyl)-3,5-difluorobenzamide]: the Index is 0.046.
